Experimental data reported in publication PMC3279297 (Bioorganic & medicinal chemistry, 2011).

Experiments:
Type in all cases: biochemical
[1] = target: DENV2 NS2B-NS3pro (Dengue virus type 2, UniProt P14340); assay: Steady-state kinetics of 7n against DENV2 NS2B-NS3pro; settings: 0.025 μM protease
[2] = target: DENV2 NS2B-NS3 protease (Dengue virus type 2, UniProt P14340); assay: In vitro DENV2 NS2B-NS3pro inhibition assay; settings: compound 25 μM, protease 25 nM, absence of detergent (Figure 2)
DENV2 NS2B-NS3 protease, sequence (P14340 1476-1653): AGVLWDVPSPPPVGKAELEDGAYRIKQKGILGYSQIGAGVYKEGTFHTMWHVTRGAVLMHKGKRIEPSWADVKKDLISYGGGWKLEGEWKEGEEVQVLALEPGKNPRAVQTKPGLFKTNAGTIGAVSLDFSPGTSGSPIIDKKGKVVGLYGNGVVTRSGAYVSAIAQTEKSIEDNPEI
DENV2 NS2B-NS3 protease, sequence (P14340 1398-1437): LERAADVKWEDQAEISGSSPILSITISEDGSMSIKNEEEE

[3] = target: WNV NS2B-NS3pro (West Nile virus, UniProt Q9Q6P4); assay: In vitro WNV NS2B-NS3pro inhibition assay; settings: compound 25 μM, protease 28 nM, 0.1% CHAPS (Figure 3)
WNV NS2B-NS3pro, sequence (Q9Q6P4 1506-1683): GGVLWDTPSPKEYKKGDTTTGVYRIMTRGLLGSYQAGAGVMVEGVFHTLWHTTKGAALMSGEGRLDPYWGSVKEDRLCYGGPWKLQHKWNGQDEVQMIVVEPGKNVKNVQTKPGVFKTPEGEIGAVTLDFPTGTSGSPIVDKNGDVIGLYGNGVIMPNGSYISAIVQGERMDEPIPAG
WNV NS2B-NS3pro, sequence (Q9Q6P4 1428-1467): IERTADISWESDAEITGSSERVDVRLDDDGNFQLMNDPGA

DENV2 NS2B-NS3pro, sequence (P14340 1476-1653): as the sequence (P14340 1476-1653) above
DENV2 NS2B-NS3pro, sequence (P14340 1398-1437): as the sequence (P14340 1398-1437) above

| Molecule | Vmax ([1]; inhibitor [7n] 1 μM) [µM/min] | Vmax ([1]; inhibitor [7n] 2 μM) [µM/min] | Vmax ([1]; inhibitor [7n] 5 μM) [µM/min] | inhibitory activity toward DENV NS2B-NS3pro (in words) [2] | inhibitory activity toward WNV NS2B-NS3pro (in words) [3] |
| --- | --- | --- | --- | --- | --- |
| O=C(Cn1sc2ccccc2c1=O)Nc1cccc(OCc2cn(CC(=O)Nc3ccccc3Oc3ccccc3)nn2)c1 [Compound 7n, N-(3-((1-(2-Oxo-2-(2-phenoxyphenylamino)ethyl)-1H-1,2,3-triazol-4-yl)methoxy)phenyl)-2-(3-oxobenzo[d]isothiazol-2(3H)-yl)acetamide] | 0.1006 ± 0.0029 | 0.0978 ± 0.0020 | 0.0994 ± 0.0010 |  |  |
| Methyl 4-((4-((3-(2-(3-oxobenzo[d]isothiazol-2(3H)-yl)acetamido)phenoxy)methyl)-1H-1,2,3-triazol-1-yl)methyl)benzoate [Compound 7e] |  |  |  | noteworthy inhibitory activity |  |
| O=C(Cn1sc2ccccc2c1=O)NCc1cn(CC(=O)Nc2ccc(Oc3ccccc3)cc2)nn1 [Compound 4l, N-((1-(2-Oxo-2-(4-phenoxyphenylamino)ethyl)-1H-1,2,3-triazol-4-yl)methyl)-2-(3-oxobenzo[d]isothiazol-2(3H)-yl)acetamide] |  |  |  | noteworthy inhibitory activity | weak inhibitory activity |
